Assay [1] concerns breast (MCF-7) and colon cancer (HCT116) cell lines. The class given is cell-based, human. Conditions: for survival rate / decline in the cell growth: 48 h; for survival rate: cell line not stated; for decline in the cell growth: 40 μg/ml, both cell lines; for growth: 72 h incubation, high concentration for cathelicidin-2 and -3, breast and colon cancer cell lines. On the procedure: (§1) The breast (MCF-7) and colon cancer (HCT116) cell lines were purchased from the American Type Culture Collection (Manassas, Va., USA) and maintained at 37° C. in a 1:1 mixture of Dulbecco's modified Eagle's medium DMEM high glucose (4.5 g/L) supplemented with 10% FBS in Corning®T75 flasks containing 1.2 g/l sodium bicarbonate (Sigma-Aldrich, St. Louis, Mo., USA), 2.5 mM L-glutamine (Invitrogen Life Technologies), 15 mM HEPES, and 0.5 mM sodium pyruvate supplemented with 400 ng/ml hydrocortisone (Sigma-Aldrich) and 10% fetal bovine serum (PAA Laboratories, Pasching, Austria) in a humidity incubator with 5% CO2 and 95% air. The culture medium was refreshed every 2-3 days for a period of 5-7 days to allow for recovery from cryopreservation and for confluency to be reached. For cell subculturing, the cells were digested with 0.25% trypsin and 0.03% EDTA solution (Invitrogen Life Technologies). Upon reaching 90% confluency, cell numbers were counted. The density of cells was 5 λ103 cells/cm^2. After that, the MCF-7 cells were seeded into three 96 well plates and treated with three chicken cathelicidins peptides for three period of incubations (24 h-48 h-72 h) (Li et al., 2014).
(§2) To assess the altered cell viability, Cell Counting Kit-8 (CCK-8) assay (Dojindo Laboratories, Kumamoto, Japan) was performed. Briefly, the cells were seeded in 96-well plates at 5×10^3 cells/well containing 180 μl of medium and cultured for up to 72 h. At the end of each experiment, 5 μl of CCk-8 solution (5 mg/ml) was added into each well, and the cells were incubated for 2 h at 37° C. The optical density value was measured by using BioTek microplate reader (Dynatech Laboratories Inc., Chantilly, Va., USA) at 450 nm. The median inhibition concentration (IC50) values were calculated using the probity model, and the inhibition rate of cell proliferation was calculated as: inhibition rate (%)=1−A450 (test)/A450 (control)×100%. Data were calculated from three independent experiments, each performed in triplicate (Li et al., 2014).

Assay [2] has as its system human colon cancer cell line (HCT116). Nature of the assay: Cell viability assay (CCK-8), HCT116. Format: cell-based. Conditions: 72 h. On the procedure:
as §1, §2

For a further assay, the system named is Caspase-7 gene. Briefly: Expression of caspase-7 gene in MCF-7 cells (RT-PCR). The class given is cell-based, human. On the procedure:
(§3) Total RNA was isolated from MCF-7 cells after chicken cathelicidins treatment using EZ RNA Clean Up Plus DNase Kit (EZ BioResearch, St Louis, Mo., USA)) following the manufacturer's instructions. RT-PCR was performed by using 1 μg of total RNA samples in the Access RT-PCR System (Bioneer Corporation Co., Ltd, South Korea) under the following conditions: first-strand DNA was synthesized with 12 cycles at 37° C. for 10 sec, 48° C. for 4 min and 60° C. for 30 sec and finally, heat inactivation at 95° C. for 5 mins then denatured at 94° C. for 5 min for the first cycle but for 30 sec for the additional 35 cycles; annealing according to Table 2 for 30 sec and extension at 72° C. for 2 min; and a final extension at 72° C. for 10 min. The PCR products were then subjected to electrophoresis in a 1.2% agarose gel and stained with ethidium bromide.
(§4) For RT-qPCR, cDNA was synthesized by using 0.5 μg of total RNA with a SuperScriptIII® Cells Direct cDNA Synthesis kit (Bioneer, Inc, Daejeon, Republic of Korea). The levels of IL-18, cyclin D1, cyclin A1, caspase-3 and 7 mRNA were amplified in triplicate using the SYBR-Green® Real-time PCR master mix (Biotool LLC, Houston, Tex., USA) on a LightCycler®480 Real-Time PCR system (Roche, Basel, Switzerland). […] The relative levels of gene expression were quantified by using the comparative CT method of ^−ΔΔCt (Livak and Schmittgen, 2001).

The test system of assay [3] is breast cancer cells (MCF-7). Briefly: Cell viability assay (CCK-8), MCF-7. The class given is cell-based, human. The note with it: 72 h. On the procedure:
as §1, §2

The test system of another assay is Caspase-3 gene. Briefly: Expression of caspase-3 gene in MCF-7 cells (RT-PCR). Format: cell-based, human. As for the experimental part:
as §3, §4

The mark [4] stands for this setting: moderate concentration (20 μg/ml).

Read-outs that look alike come from different tables or passages of the source. Ends that are not written are not given here.

With `CC[C@H](C)[C@H](NC(=O)[C@H](CCCCN)NC(=O)[C@H](CCC(=O)O)NC(=O)[C@H](CCCCN)NC(=O)[C@H](CO)NC(=O)[C@H](CCCCN)NC(=O)[C@H](CCCNC(=N)N)NC(=O)[C@H](Cc1ccccc1)NC(=O)[C@H](Cc1ccccc1)NC(=O)[C@H](CC(=O)O)NC(=O)CNC(=O)[C@H](CC(C)C)NC(=O)[C@@H](N)CC(C)C)C(=O)NCC(=O)N[C@@H](CCCCN)C(=O)N[C@@H](CCC(=O)O)C(=O)N[C@@H](Cc1ccccc1)C(=O)N[C@@H](CCCCN)C(=O)N[C@@H](CCCNC(=N)N)C(=O)N[C@H](C(=O)N[C@H](C(=O)N[C@@H](CCC(N)=O)C(=O)N[C@@H](CCCNC(=N)N)C(=O)N[C@H](C(=O)N[C@@H](CCCCN)C(=O)N[C@@H](CC(=O)O)C(=O)N[C@@H](Cc1ccccc1)C(=O)N[C@@H](CC(C)C)C(=O)N[C@@H](CCCNC(=N)N)C(=O)N[C@@H](CC(N)=O)C(=O)N[C@@H](CC(C)C)C(=O)N[C@H](C(=O)N1CCC[C@H]1C(=O)N[C@@H](CCCNC(=N)N)C(=O)N[C@H](C(=O)N[C@@H](CCC(=O)O)C(=O)N[C@@H](CO)C(=O)O)[C@@H](C)O)C(C)C)[C@@H](C)CC)C(C)C)[C@@H](C)CC` [Cathelicidin-1], the survival rate in assay [1] (low concentration (10 μg/ml)) is listed as 25%; in assay [1] (moderate concentration (printed 10 μg/ml)) it was 12%.

With “RFGRFLRKIRRFRPKVTITIQGSARF [Cathelicidin-2]”, in assay [1], the “decline in the cell growth” value stood at 10%. In addition, the growth in assay [1] is reported as 7%. For the same molecule, the development rate in assay [2] (low concentration) amounted to 61.3%; in assay [2] (setting [4]), 24%; in assay [3] (low concentration), 72%; in assay [3] (setting [4]), 44%. For the same molecule, the “caspase-7 gene expression relative to untreated cells” value in the assay on Caspase-7 gene is recorded as “two-fold”. The “caspase-3 gene expression relative to untreated cells” value with Caspase-3 gene is recorded as “two times greater”.

Regarding “RVKRFWPLVPVAINTVAAGINLYKAIRRK [Cathelicidin-3]”, the “decline in the cell growth” value in assay [1] is on record as “about 7%”. For the same molecule, in assay [1], the growth is 16%. In addition, the development rate in assay [2] (low concentration) is listed as 65%; in assay [2] (setting [4]), 43.5%; in assay [3] (low concentration), 73%; in assay [3] (setting [4]) it was 73%. Further, in the assay with Caspase-7 gene, the “caspase-7 gene expression relative to untreated cells” value is “two-fold”. Further, in the assay with Caspase-3 gene, the “caspase-3 gene expression relative to untreated cells” value is “two times greater”.

The values are drawn from patent publication US11179438B1, “Chicken cathelicidins as a cancer therapy” (King Abdulaziz University, priority 2021, dated 2021).
